This note sets out measurements from patent publication US20240262815A1, “HETEROARYL DERIVATIVE, METHOD FOR PREPARING SAME, AND PHARMACEUTICAL COMPOSITION COMPRISING SAME AS ACTIVE INGREDIENT” (VORONOI INC., priority 2021, published 2024).

Assay [1] has as its system SK-BR-3 cancer cells. The assay is described as follows: Inhibitory activity against proliferation of SK-BR-3 cancer cells (CellTiter-Glo). It counts as cell-based. To be noted: Homo sapiens, SK-BR-3, 120 h, ErbB2-overexpressing SK-BR-3 cells, 120 hours after treatment. The method in brief: (§1)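 GI50 derived from % growth relative to control, measured by CellTiter-Glo luminescence after 120 h compound exposure (12 concentrations, 0.2 nM-5 μM final, n=3). BT-474 grown in RPMI-1640/20% FBS, SK-BR-3 in McCOY'S 5A/10% FBS; seeding 48 h pre-treatment.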
Background: Cellular ATP, detected with luciferase, serves as a proxy for viable cell number.

In assay [2] the test system is BT-474 cancer cells. The assay is described as follows: Inhibitory activity against proliferation of BT-474 cancer cells (CellTiter-Glo). It counts as cell-based. To be noted: Homo sapiens, BT-474 ErbB2-overexpressing cancer cells, 120 hours after treatment. The procedure, abridged: as §1

As for `C=CC(=O)Nc1cc(Nc2cc(N3OCC[C@@H]3c3cccc(-c4cccc(F)c4)c3)ncn2)c(OC)cc1N1CCN(C2COC2)CC1` [Example 293, (R)-N-(5-((6-(3-(3′-fluoro-[1,1′-biphenyl]-3-yl)-isoxazolidin-2-yl)-pyrimidin-4-yl)-amino)-4-methoxy-2-(4-(oxetan-3-yl)-piperazin-1-yl)-phenyl)acrylamide], the GI50 (usually the concentration giving 50% growth inhibition) in assay [1] is less than 50 nM; in assay [2], 50 to 500 nM.
The corresponding values for `C=CC(=O)Nc1cc(Nc2cc(N3OCC[C@@H]3c3cccc(-c4cccc(F)c4)c3)ncn2)c(OC)cc1N1CCN(S(C)(=O)=O)CC1` [Example 294, (R)-N-(5-((6-(3-(3′-fluoro-[1,1′-biphenyl]-3-yl)-isoxazolidin-2-yl)-pyrimidin-4-yl)-amino)-4-methoxy-2-(4-(methylsulfon-yl)piperazin-1-yl)-phenyl)acrylamide] are less than 50 nM and less than 50 nM.
The corresponding values for `C=CC(=O)Nc1cc(Nc2cc(N3OCC[C@@H]3c3cccc(-c4cccc(F)c4)c3)ncn2)c(OC)cc1N1CC2(CN(C(=O)OC(C)(C)C)C2)C1` [Example 295, tert-butyl (R)-6-(2-acrylamido-4-((6-(3-(3′-fluoro-[1,1′-biphenyl]-3-yl)-isoxazolidin-2-yl)-pyrimidin-4-yl)-amino)-5-methoxy-phenyl)-2,6-diazaspiro[3.3]-heptane-2-carbox-ylate] are 50 to 500 nM and less than 50 nM.
On to `C=CC(=O)Nc1cc(Nc2cc(N3OCC[C@@H]3c3cccc(C#Cc4ccccc4)c3)ncn2)c(OC)cc1N(C)CCN(C)C` [Example 297, (R)-N-(2-((2-(dimethylamino)-ethyl)(methyl)-amino)-4-methoxy-5-((6-(3-(3-(phen-ylethynyl)phenyl)-isoxazolidin-2-yl)-pyrimidin-4-yl)-amino)phenyl)-acrylamide], for which the GI50 in assay [1] and in assay [2] was less than 50 nM throughout.
As to `C=CC(=O)Nc1cc(Nc2cc(N3OCC[C@@H]3c3cccc(-c4ccc(OC)nc4)c3)ncn2)c(OC)cc1N1CCN(C)CC1` [Example 298, (R)-N-(4-methoxy-5-((6-(3-(3-(6-methoxypyridin-3-yl)phenyl)-isox-azolidin-2-yl)-pyrimidin-4-yl)-amino)-2-(4-meth-ylpiperazin-1-yl)-phenyl)acrylamide], the GI50 in assay [1] and in assay [2] was less than 50 nM each time.
Turning to `C=CC(=O)Nc1cc(Nc2cc(N3OCC[C@@H]3c3cccc(-c4ccc(OC)nc4)c3)ncn2)c(OC)cc1N(C)CCN(C)C` [Example 300, (R)-N-(2-((2-(dimethylamino)-ethyl)(methyl)-amino)-4-methoxy-5-((6-(3-(3-(6-methoxypyridin-3-yl)phenyl)isox-azolidin-2-yl)pyr-imidin-4-yl)amino)-phenyl)acrylamide], the GI50 in assay [1] and in assay [2] was less than 50 nM in each case.
For `C=CC(=O)Nc1cc(Nc2cc(N3OCC[C@@H]3c3cccc(-c4ccc(O)nc4)c3)ncn2)c(OC)cc1N(C)CCN(C)C` [Example 301, (R)-N-(2-((2-(dimethylamino)-ethyl)(methyl)-amino)-5-((6-(3-(3-(6-hydroxy-pyridin-3-yl)phen-yl)-isoxazolidin-2-yl)pyrimidin-4-yl)amino)-4-meth-oxyphenyl)acryl-amide], the results for the GI50 in assay [1] and in assay [2] were 50 to 500 nM and less than 50 nM, respectively.
For the molecule `C=CC(=O)Nc1cc(Nc2cc(N3OCC[C@@H]3c3cccc(-c4cnc(C)c(F)c4)c3)ncn2)c(OC)cc1N1CCN(C)CC1` [Example 302, (R)-N-(5-((6-(3-(3-(5-fluoro-6-meth-ylpyridin-3-yl)-phenyl)isoxazol-idin-2-yl)pyrim-idin-4-yl)amino)-4-methoxy-2-(4-methylpiperazin-1-yl)phenyl)acryl-amide], the concentration for 50% growth inhibition (GI50) is 50 to 500 nM in assay [1] and less than 50 nM in assay [2].
The corresponding values for `C=CC(=O)Nc1cc(Nc2cc(N3OCC[C@@H]3c3cccc(-c4cnc(C)c(F)c4)c3)ncn2)c(OC)cc1N(C)CCN(C)C` [Example 303, (R)-N-(2-((2-(dimethylamino)-ethyl)(methyl)-amino)-5-((6-(3-(3-(5-fluoro-6-methylpyridin-3-yl)phenyl)isoxazol-idin-2-yl)pyrim-idin-4-yl)amino)-4-methoxyphenyl)-acrylamide] are less than 50 nM and less than 50 nM.
The corresponding values for `C=CC(=O)Nc1cc(Nc2cc(N3OCC[C@@H]3c3cccc(-c4cccc(F)c4)c3)ncn2)c(OC)cc1N1CCN(CCN(C)C)CC1` [Example 304, (R)-N-(2-(4-(2-(dimethylamino)-ethyl)piperazin-1-yl)-5-((6-(3-(3′-fluoro-[1,1′-biphen-yl]-3-yl)isoxazol-idin-2-yl)pyrim-idin-4-yl)amino)-4-methoxyphenyl)-acrylamide] are less than 50 nM and less than 50 nM.
Turning to `C=CC(=O)Nc1cc(Nc2cc(N3OCC[C@@H]3c3cccc(C#CC(C)(C)C)c3)ncn2)c(OC)cc1N(C)CCN(C)C` [Example 305, (R)-N-(2-((2-(dimethylamino)-ethyl)(methyl)-amino)-5-((6-(3-(3-(3,3-dimethyl-but-1-yn-1-yl)-phenyl)isoxazol-idin-2-yl)pyrim-idin-4-yl)amino)-4-methoxyphenyl)-acrylamide], the GI50 in assay [1] and in assay [2] was less than 50 nM in each case.
As for `C=CC(=O)Nc1cc(Nc2cc(N3OCC[C@@H]3c3cccc(-c4cccc(F)c4)c3)ncn2)c(OC)cc1N1C[C@H]2C[C@@H]1CN2C` [Example 306, N-(5-((6-((R)-3-(3′-fluoro-[1,1′-biphenyl]-3-yl)-isoxazolidin-2-yl)-pyrimidin-4-yl)-amino)-4-meth-oxy-2-((1R,4R)-5-methyl-2,5-diaza-bicyclo[2.2.1]-heptan-2-yl)phen-yl)acrylamide], the GI50 in assay [1] and in assay [2] was less than 50 nM throughout.
As to `C=CC(=O)Nc1cc(Nc2cc(N3OCC[C@@H]3c3cccc(-c4cccc(F)c4)c3)ncn2)c(OC)cc1N1CCN(C)[C@@H](C)C1` [Example 307, N-(2-((S)-3,4-dimethylpiperazin-1-yl)-5-((6-((R)-3-(3′-fluoro-[1,1′-biphenyl]-3-yl)-isoxazolidin-2-yl)-pyrimidin-4-yl)-amino)-4-methoxy-phenyl)acrylamide], the GI50 in assay [1] and in assay [2] was less than 50 nM throughout.
Turning to `C=CC(=O)Nc1cc(Nc2cc(N3OCC[C@@H]3c3ccc(F)c(-c4cccc(F)c4)c3)ncn2)c(OC)cc1N1CCN(C)CC1` [Example 308, (R)-N-(5-((6-(3-(3′,6-difluoro-[1,1′-biphenyl]-3-yl)-isoxazolidin-2-yl)-pyrimidin-4-yl)-amino)-4-methoxy-2-(4-methylpiper-azin-1-yl)phenyl)-acrylamide], the GI50 in assay [1] and in assay [2] was less than 50 nM throughout.
As for `C=CC(=O)Nc1cc(Nc2cc(N3OCC[C@@H]3c3cccc(C#CC(C)(C)O)c3)ncn2)c(OC)cc1N(C)CCN(C)C` [Example 309, (R)-N-(2-((2-(dimethylamino)-ethyl)(methyl)-amino)-5-((6-(3-(3-(3-hydroxy-3-methylbut-1-yn-1-yl)phenyl)isoxazol-idin-2-yl)pyrim-idin-4-yl)amino)-4-methoxyphen-yl)acrylamide], the GI50 in assay [1] and in assay [2] was less than 50 nM throughout.
